Source: US5160742A, “System for delivering an active substance for sustained release” (Abbott Laboratories, priority 1991, dated 1992)

What was measured:
Type in all cases: physicochemical
[1] = Suspension stability study: amoxicillin released in syrup; conditions: 30° C.
Procedure: Samples of particles having each of the structure from Table 11 were suspended at a concentration of 250 mg amoxicillin per 5 ml in sucrose-based syrups adjusted to different pH's, the formulations of these syrups are set forth in Table 12, were stored at 30° C. and shaken daily. Samples were removed for testing at 1 hours, 1 day, 7 days and 14 days. Encapsulated drug and undissolved particulate matter were removed from the suspensions by filtration through a 35 micron filter. The clarified syrups were diluted with mobile phase of pH 5.0 potassium phosphate buffer containing 4% acetonitrile and filtered again through a 0.45 micron filter prior to analysis by high pressure liquid chromatography (HPLC). The method of quantitating the amount of amoxicillin released in the syrup solutions was adapted from the USP method for amoxicillin described on pages 2088-2089 of Supplement 1 in USP XXII-NF XVII.

[2] = Dissolution of amoxicillin particles in simulated gastric fluid
Procedure: (§1) The particles were subjected to dissolution tests in simulated gastric fluid (SGF) at pH 1.2 simulated intestinal fluid (SIF) at pH 6.8. The SGF and SIF were prepared per USP specs (USP XXII-NF XVII, pp. 1788-1789, 1990). Selected samples were also tested in SGF at pH 5.0, in pH 1.2 and 5.0 acids, and in pH 6.8 buffer. The pH 1.2 and 5.0 acids were prepared the same way as the corresponding SGF's, except no enzymes were added. Similarly, the pH 6.8 buffer was prepared the same way as the SIF, except no enzyme was added. The dissolution test was conducted using apparatus 2 assembly, as specified by USP (USP XXII-NF XVII, pp. 1578-1579, 1990). The nominal capacity of the dissolution vessel was 1000 mL. A peddle was used as the stirring element at a rotational speed of 50 rpm. The temperature was maintained at 37°+0.5° C. using a circulating water bath. The solution was sampled at 0.5, 1, and 2 hours for the test in SGF, and at 1, 3, and 6 hours for the test in SIF. A 10-mL aliquot was drawn at each sampling time through a 35 micron filter. […] The particles manufactured in this example were subjected to dissolution testing as described in Example 1. Selected particle samples were subjected to sequential dissolution testing as described in Example 2. […] The column was C-18. […] The detector was UV at 230 nm. A pure amoxicillin trihydrate (AMX1), which was calibrated with an USP reference standard, was used as the working standard. For dissolution sample analysis, the standard was dissolved in the mobile phase. For zein-coated drug analysis, both the sample and the standard were dissolved by mixing with 5 mL methanol for 2-5 minutes and then diluting with the mobile phase to the desired level.

[3] = Dissolution of amoxicillin particles in simulated intestinal fluid
Procedure: as §1

[4] = Suspension stability study: APAP released in syrup
From the text: The concept that stability in an aqueous suspension is primarily controlled by the exterior coating layer is supported by studies performed on acetaminophen (APAP). Acetaminophen was coated with various combinations of zein and Eudragit®. […] The composition of these syrups was similar to those used for the amoxicillin suspensions (compare Tables 12 and 14). A description of the manufacture of the APP27 particles is set forth above in Example 3; for APP32 particles in Example 3; for APP42 particles in Example 5; and for APP46 particles in Example 5. The particles identified in the tables as as "APAP" are uncoated acetaminophen. APP27 and 32 were suspended at 250 mg per 5 ml in a syrup at pH 8.1 and APP42 and 46 were each suspended at the same concentration in syrups at both pH 5.0 and 8.1 respectively. For analysis of samples in sucrose-based syrups, the samples were diluted 50-400 folds with water and then filtered through a 0.45 micron filter for HPLC analysis. The dilution was necessary for proper UW detection and to minimize the effect of matrix on column performance. The methanol content of the aqueous mobile phase was adjusted between 2 and 15%, pending the performance of the C-18 column used.

[5] = Dissolution of acetaminophen (APAP) particles in simulated gastric fluid (USP apparatus 2)
Procedure: (§2) The particles were subjected to dissolution tests in simulated gastric fluid (SGF) at pH 1.2 simulated intestinal fluid (SIF) at pH 6.8. The SGF and SIF were prepared per USP specs (USP XXII-NF XVII, pp. 1788-1789, 1990). Selected samples were also tested in SGF at pH 5.0, in pH 1.2 and 5.0 acids, and in pH 6.8 buffer. The pH 1.2 and 5.0 acids were prepared the same way as the corresponding SGF's, except no enzymes were added. Similarly, the pH 6.8 buffer was prepared the same way as the SIF, except no enzyme was added. The dissolution test was conducted using apparatus 2 assembly, as specified by USP (USP XXII-NF XVII, pp. 1578-1579, 1990). The nominal capacity of the dissolution vessel was 1000 mL. A peddle was used as the stirring element at a rotational speed of 50 rpm. The temperature was maintained at 37°+0.5° C. using a circulating water bath. The solution was sampled at 0.5, 1, and 2 hours for the test in SGF, and at 1, 3, and 6 hours for the test in SIF. A 10-mL aliquot was drawn at each sampling time through a 35 micron filter. The aliquot was then filtered again through a 0.45 micron filter for HPLC analysis to determine its drug content. An HPLC method was developed for the determination of acetaminophen in zein-coated powders and in dissolution samples from various media. Zein-coated powders were dissolved in methanol for analysis. An acetaminophen USP reference standard was used for the quantitation. For zein-coated drug analysis, the standard was prepared in methanol. For dissolution sample analysis, the standard was prepared in water. Each sample or standard solution was then filtered through a 0.45 micron filter for HPLC analysis. A C-18 column connected with an UV detector at 244 nm was used for the HPLC analysis. The mobile phase was water/methanol (85/15, v/v) at a flow rate of 1.0 mL/min. The analysis time was 18-20 min/injection.

[6] = Dissolution of acetaminophen (APAP) particles in simulated intestinal fluid (USP apparatus 2)
Procedure: as §2

CC1(C)S[C@@H]2[C@H](NC(=O)[C@H](N)c3ccc(O)cc3)C(=O)N2[C@H]1C(=O)O [AMX1, amoxicillin trihydrate]
Percent Amoxicillin Released in Syrup ([1]; Syrup at pH 5.0, 1 Day): 9.3% | Percent Amoxicillin Released in Syrup ([1]; Syrup at pH 5.0, 1 Hr): 7.4% | Percent Amoxicillin Released in Syrup ([1]; Syrup at pH 5.0, 7 Days): 11.3% | Percent Amoxicillin Released in Syrup ([1]; Syrup at pH 5.0, 14 Days): 9.0% | Percent Amoxicillin Released in Syrup ([1]; Syrup at pH 6.5, 1 Day): 9.6% | Percent Amoxicillin Released in Syrup ([1]; Syrup at pH 6.5, 1 Hr): 8.6% | Percent Amoxicillin Released in Syrup ([1]; Syrup at pH 6.5, 7 Days): 14.6% | Percent Amoxicillin Released in Syrup ([1]; Syrup at pH 6.5, 14 Days): 10.9% | Percent Amoxicillin Released in Syrup ([1]; Syrup at pH 8.5, 1 Day): 2.8% | Percent Amoxicillin Released in Syrup ([1]; Syrup at pH 8.5, 1 Hr): 19.5% | Percent Amoxicillin Released in Syrup ([1]; Syrup at pH 8.5, 7 Days): 9.6% | Percent Amoxicillin Released in Syrup ([1]; Syrup at pH 8.5, 14 Days): 5.7%

CC1(C)S[C@@H]2[C@H](NC(=O)[C@H](N)c3ccc(O)cc3)C(=O)N2[C@H]1C(=O)O [AMX23, amoxicillin]
Cumulative % Release of Amoxicillin, 0.5 hr ([2]; In SGF, pH 1.2, 0.5 hr): 53% | Cumulative % Release of Amoxicillin, 1 hr ([2]; In SGF, pH 1.2, 1 hr): 45% | Cumulative % Release of Amoxicillin, 2 hr ([2]; In SGF, pH 1.2, 2 hr): 36% | release of amoxicillin in simulated gastric fluid (in words) ([2]; SGF pH 1.2): rapid release | Cumulative % Release of Amoxicillin, 1 hr ([3]; In SIF, pH 6.8, 1 hr): 83% | Cumulative % Release of Amoxicillin, 3 hr ([3]; In SIF, pH 6.8, 3 hr): 91% | Cumulative % Release of Amoxicillin, 6 hr ([3]; In SIF, pH 6.8, 6 hr): 93% | release of amoxicillin in simulated intestinal fluid (in words) ([3]; SIF pH 6.8): quite rapidly

CC(=O)Nc1ccc(O)cc1 [APAP, acetaminophen]
Percent APAP Released in Syrup ([4]; Table 15, syrup at pH 8.1, 1 Hr): 20.0% | Percent APAP Released in Syrup ([4]; Table 15, syrup at pH 8.1, 28 Days): 23.0% | Percent APAP Released in Syrup ([4]; Table 16, syrup pH 5.0, 1 Day): 31.9% | Percent APAP Released in Syrup ([4]; Table 16, syrup pH 5.0, 1 Hr): 20.2% | Percent APAP Released in Syrup ([4]; Table 16, syrup pH 5.0, 7 Days): 26.5% | Percent APAP Released in Syrup ([4]; Table 16, syrup pH 5.0, 14 Days): 24.9% | Percent APAP Released in Syrup ([4]; Table 16, syrup pH 8.1, 1 Day): 27.5% | Percent APAP Released in Syrup ([4]; Table 16, syrup pH 8.1, 1 Hr): 7.7% | Percent APAP Released in Syrup ([4]; Table 16, syrup pH 8.1, 7 Days): 29.8% | Percent APAP Released in Syrup ([4]; Table 16, syrup pH 8.1, 14 Days): 28.0%

CC(=O)Nc1ccc(O)cc1 [APP21, Acetaminophen]
Cumulative % Release of APAP, 0.5 hr ([5]; In SGF, pH 1.2, 0.5 hr): 97% | Cumulative % Release of APAP, 1 hr ([5]; In SGF, pH 1.2, 1 hr): 97% | Cumulative % Release of APAP, 2 hr ([5]; In SGF, pH 1.2, 2 hr): 98% | release of APAP in simulated gastric fluid (in words) ([5]; SGF pH 1.2): dissolved in gastric fluid very quickly | Cumulative % Release of APAP, 1 hr ([6]; In SIF, pH 6.8, 1 hr): 98% | Cumulative % Release of APAP, 3 hr ([6]; In SIF, pH 6.8, 3 hr): 101% | Cumulative % Release of APAP, 6 hr ([6]; In SIF, pH 6.8, 6 hr): 102% | release of APAP in simulated intestinal fluid (in words) ([6]; SIF pH 6.8): dissolved fairly rapidly
